The nature of series [1]: Bioavailability of orally administered FTS formulated in 0.5% aqueous carboxymethylcellulose (plasma FTS by LC/MS). Particulars: CD-1, mouse, 40 mg/kg, mice, gavage, 0.5% aqueous carboxymethylcellulose suspension. Type of series: in vivo, CD-1 mice. On the procedure:
(§1) FTS (40 Mg) was dispersed in 0.5% aqueous carboxymethylcellulose (10 ml). Aliquots of the resulting suspension were administered by gavage to CD-1 mice (eighteen) at a dose of […] (at a volume of 10 ml/kg of FTS suspension calculated for actual animal weight). Blood samples were collected in lithium heparin tubes via the retro-orbital plexus while under CO2/O2 anesthesia at 1, 2, 4, 8, 12, and 24 hours (3 animals at each time point) after dosing. Aliquots (100 μL) of plasma were mixed with water, pH 11 buffer solution, and acetonitrile. After centrifugation, the supernatant was evaporated to dryness. The residue was re-suspended in water/acetonitrile and centrifuged, and the supernatant was transferred to auto-sampler vials for FTS determination by LC/MS.

Series [2] in a line: Compatibility of FTS with pharmaceutical excipients (accelerated stability, HPLC assay). The conditions noted are these: 1:1 w/w mixture with FTS, 40° C./75% RH, loosely capped vials. In kind it is physicochemical. On the procedure: Physical mixtures (1:1 w/w) of FTS and representative pharmaceutical excipients commonly used in oral formulations were stored at 40° C./75% RH accelerated stress conditions for four weeks in loosely capped vials. Samples were assayed by HPLC at the 0, 2-week and 4-week time points.

Series [3] in a line: Bioavailability of orally administered FTS to rats (plasma FTS by LC/MS). The conditions noted are these: oral 200 mg/kg in corn oil (95%) and ethanol (5%). Type of series: in vivo, Crl:CD(SD) (IGS)BR rats. On the procedure: FTS was dissolved in a mixture of corn oil (95%) and ethanol (5%). Aliquots of the resulting solution were administered to Crl:CD(SD) (IGS)BR rats (twenty-four) at a dose of 200 mg/kg. Blood samples were collected in lithium-heparin-containing tubes via the retro-orbital plexus while under CO2/O2 anesthesia at 1, 2, 4, 8, 12 and 24 hours after dosing. Concentration of FTS at each time point was determined by LC/MS.

Series [4] can be described thus: Bioavailability of orally administered FTS formulated in corn oil (plasma FTS by LC/MS). In kind it is in vivo, CD-1 mice. The conditions noted are these: CD-1, mouse, 40 mg/kg, mice, gavage, corn oil suspension. The protocol: as §1, with “mg)” for “Mg)”, “corn oil” for “0.5% aqueous carboxymethylcellulose”, “12” for “12,”, “solution” for “solution,”, “resuspended” for “re-suspended”, “liquid chromatography/mass spectrometry (LC/MS).” for “LC/MS.”
There was a rapid decrease to less than 3 ng/ml after 24 hours.

For another series, the system named is Panc-1 cells. The series can be described thus: Inhibition of pancreatic tumor growth with orally administered FTS (subcutaneous Panc-1 implant). In kind it is in vivo, Nude CD1-Nu Mice. Particulars: for average tumor weight: control 1.02 g. On the procedure:
Nude CD1-Nu Mice were implanted subcutaneously with 5.0×10^6 Panc-1 cells in 0.2 ml of PBS just above the right femoral joint. Eleven days after implantation, palpable tumors were observed. FTS was dispersed in 0.5% aqueous carboxymethylcellulose at a concentration of 5 mg/ml. On the eleventh day after implantation, mice were segregated into three groups and were given vehicle or FTS suspension by gavage. Group 1 (Controls, 6 mice) received 0.2 ml vehicle daily. Group 2 (20 mg/kg FTS, 7 mice) received 0.1 ml FTS suspension daily. Group 3 (40 mg/kg FTS, 6 mice) received 0.2 ml FTS suspension daily. Mice were treated for ten days, and were sacrificed. Tumors were excised and weighed.

The mark [5] stands for this setting: oral, dose 40 mg/ml (10 ml/kg), 1 hour.
Setting [6] is: oral, dose 40 mg/ml (10 ml/kg), 2 hours.
[7] abbreviates: oral, dose 40 mg/ml (10 ml/kg), 24 hours.
[8] abbreviates: po, read-out: oral bioavailability compared to intra-peritoneal injection.
Setting [9] is: 20 mg/kg FTS daily by gavage in 0.5% CMC for ten days.
The mark [10] stands for this setting: 40 mg/kg FTS daily by gavage in 0.5% CMC for ten days.

SMILES strings stand for the structures.

One may read the bioavailability as dose-corrected exposure relative to a reference, in per cent. Consider `CC(C)=CCC/C(C)=C/CC/C(C)=C/CSc1ccccc1C(=O)O` [FTS, farnesyl-thiosalicylic acid], for which the concentration at 1 h in series [1] (setting [5]) was found to be 3380 ng/mL; in series [3] (Crl:CD(SD) (IGS)BR, rat, plasma, 1 hour), 4450 ng/mL; in series [4] (setting [5]), 2160 ng/mL. Further, the concentration at 2 h stood at 1590 ng/mL in series [1] (setting [6]); 4550 ng/mL in series [3] (Crl:CD(SD) (IGS)BR, rat, plasma, 2 hours); 1330 ng/mL in series [4] (setting [6]). The concentration at 24 h was under 3 ng/mL in series [1] (setting [7]); 140 ng/mL in series [3] (Crl:CD(SD) (IGS)BR, rat, plasma, 24 hours); under 3 ng/mL in series [4] (setting [7]). In addition, the values for the bioavailability in series [1] (setting [8]) and in series [4] (setting [8]) were 69% and 55%, respectively. The “HPLC assay, 0 weeks” value in series [2] (0 weeks, in % (unit assumed)) is reported as 97.75. Further, the HPLC assay, 2 weeks in series [2] (2 weeks) worked out at 97.1%. The “HPLC assay, 4 weeks” value in series [2] (4 weeks, in % (unit assumed)) is 97.76. Moreover, the concentration at 4 h in series [3] (Crl:CD(SD) (IGS)BR, rat, plasma, 4 hours) is 3050 ng/mL. For the same compound, the concentration at 8 h in series [3] (Crl:CD(SD) (IGS)BR, rat, plasma, 8 hours) was 2220 ng/mL. This compound also showed a concentration at 12 h in series [3] (Crl:CD(SD) (IGS)BR, rat, plasma, 12 hours) of 685 ng/mL. In series [3], the “oral bioavailability (in words)” value was “high level of oral bioavailability”. Also, the “tumor weight lower than control” value in the series on Panc-1 cells (setting [9]) is listed as 32%; in the series on Panc-1 cells (setting [10]), 53%. Also, the average tumor weight amounted to 0.68 g with Panc-1 cells (setting [9]) and 0.47 g in the series with Panc-1 cells (setting [10]).

The record behind these values is patent US8088756B2, “Methods and compositions for oral delivery of FTS” (Concordia Pharmaceuticals, Inc., priority 2004, dated 2012).
